Measured values published in the NIST ThermoML archive (doi:10.1021/je200457q).

Assays:
[1] = 298.15 K; 101.33 kPa; Liquid; Vibrating tube method
[2] = excess molar enthalpy (molar enthalpy of mixing); xn = mol fraction of the nth substance listed; settings: 101 kPa, Liquid, Flow calorimetry

C=CC(C)(O)CCC=C(C)C (stereo not given) [3,7-dimethyl-1,6-octadien-3-ol]
Settings | mass density [kg/m3]
[1] | 857

C=CC(C)(O)CCC=C(C)C (stereo not given) [3,7-dimethyl-1,6-octadien-3-ol] + CC(C)O
excess molar enthalpy [kcal/mol], [2]
Settings | 283.15 K | 298.15 K | 313.15 K | 328.15 K
x1 = 0.024 | -0.00789 | -0.00741 | -0.00574 | -0.00191
x1 = 0.048 | -0.011 | -0.0117 | -0.00908 | -0.00239
x1 = 0.097 | -0.0141 | -0.0148 | -0.0115 | -0.000717
x1 = 0.195 | -0.0174 | -0.0174 | -0.0108 | 0.00621
x1 = 0.292 | -0.0186 | -0.0172 | -0.00837 | 0.0131
x1 = 0.392 | -0.0196 | -0.0163 | -0.0055 | 0.0184
x1 = 0.49 | -0.0196 | -0.0134 | -0.00167 | 0.0215
x1 = 0.592 | -0.0174 | -0.00884 | 0.00191 | 0.022
x1 = 0.693 | -0.012 | -0.00287 | 0.00478 | 0.0184
x1 = 0.796 | -0.00454 | 0.00143 | 0.00454 | 0.0131
x1 = 0.894 | 0.000717 | 0.00215 | 0.00167 | 0.00574
x1 = 0.948 | 0.000478 | 0.000717 | 0.000717 | 0.00263

C=CC(C)(O)CCC=C(C)C (stereo not given) [3,7-dimethyl-1,6-octadien-3-ol] + CCCCO
excess molar enthalpy [kcal/mol], [2]
Settings | 283.15 K | 298.15 K | 313.15 K | 328.15 K
x1 = 0.042 | -0.00311 | -0.00717 | -0.00717 | -0.00526
x1 = 0.085 | -0.00502 | -0.0143 | -0.0158 | -0.022
x1 = 0.174 | -0.00526 | -0.0227 | -0.0349 | -0.0526
x1 = 0.265 | -0.00287 | -0.0241 | -0.0466 | -0.0724
x1 = 0.359 | -0.000239 | -0.0217 | -0.0514 | -0.082
x1 = 0.457 | 0.00215 | -0.0182 | -0.0509 | -0.0837
x1 = 0.559 | 0.00574 | -0.0136 | -0.0447 | -0.0779
x1 = 0.661 | 0.00956 | -0.00669 | -0.0351 | -0.0624
x1 = 0.771 | 0.0136 | 0.000717 | -0.022 | -0.044
x1 = 0.884 | 0.0141 | 0.00621 | -0.00741 | -0.021
x1 = 0.943 | 0.0105 | 0.00526 | -0.00191 | -0.00884

C=CC(C)(O)CCC=C(C)C (stereo not given) [3,7-dimethyl-1,6-octadien-3-ol] + CCCO
excess molar enthalpy [kcal/mol], [2]
Settings | 283.15 K | 298.15 K | 313.15 K | 328.15 K
x1 = 0.048 | -0.0404 | -0.0392 | -0.0428 | -0.0411
x1 = 0.096 | -0.0772 | -0.0786 | -0.0786 | -0.0698
x1 = 0.188 | -0.13 | -0.136 | -0.134 | -0.112
x1 = 0.29 | -0.153 | -0.167 | -0.162 | -0.131
x1 = 0.383 | -0.154 | -0.168 | -0.161 | -0.132
x1 = 0.491 | -0.142 | -0.148 | -0.142 | -0.119
x1 = 0.584 | -0.121 | -0.124 | -0.123 | -0.0997
x1 = 0.693 | -0.0884 | -0.0908 | -0.0937 | -0.0777
x1 = 0.794 | -0.0588 | -0.0614 | -0.0686 | -0.0574
x1 = 0.894 | -0.027 | -0.0311 | -0.0356 | -0.0304
x1 = 0.945 | -0.0139 | -0.0163 | -0.0191 | -0.0165

C=CC(C)(O)CCC=C(C)C (stereo not given) [3,7-dimethyl-1,6-octadien-3-ol] + CCO
excess molar enthalpy [kcal/mol], [2]
Settings | 283.15 K | 298.15 K | 313.15 K | 328.15 K
x1 = 0.047 | -0.0366 | -0.0366 | -0.0418 | -0.0413
x1 = 0.094 | -0.0741 | -0.0805 | -0.0839 | -0.0798
x1 = 0.19 | -0.143 | -0.152 | -0.157 | -0.143
x1 = 0.29 | -0.185 | -0.198 | -0.202 | -0.18
x1 = 0.387 | -0.191 | -0.207 | -0.212 | -0.189
x1 = 0.481 | -0.179 | -0.19 | -0.199 | -0.177
x1 = 0.585 | -0.152 | -0.165 | -0.17 | -0.152
x1 = 0.695 | -0.11 | -0.121 | -0.128 | -0.114
x1 = 0.78 | -0.0743 | -0.0923 | -0.101 | -0.0875
x1 = 0.895 | -0.0335 | -0.0423 | -0.0473 | -0.0411
x1 = 0.946 | -0.0165 | -0.021 | -0.0249 | -0.0232

CCCCO [butan-1-ol]
Settings | mass density [kg/m3]
[1] | 805.71

CCO [ethanol]
Settings | mass density [kg/m3]
[1] | 785.46

CCCO [propan-1-ol]
Settings | mass density [kg/m3]
[1] | 799.56

CC(C)O [propan-2-ol]
Settings | mass density [kg/m3]
[1] | 781.23
